Measurements: article PMC4611054, “Quantitative time-resolved analysis reveals intricate, differential regulation of standard- and immuno-proteasomes” (eLife, 2015)
Residues, ends and D or L forms follow the SMILES beside them.

Experiments:
Type in all cases: biochemical
[1] = molecular target: T1, 20S mouse liver proteasome (Mus musculus, UniProt O55234+P70195+Q60692); assay: Bz-VGR-MCA hydrolysis with and without peptide; settings: activator; allosteric non-catalytic modifier site; terminal groups of LLVY not told; pH 7.2, 37 °C
T1 construct: gene Psmb5; native 20S core particle purified from mouse liver; alpha7beta7beta7alpha7; with Proteasome subunit beta type-1; Proteasome subunit beta type-2; Proteasome subunit beta type-3; Proteasome subunit beta type-4; Proteasome subunit alpha type-1; Proteasome subunit alpha type-2; Proteasome subunit alpha type-3; Proteasome subunit alpha type-4; Proteasome subunit alpha type-5; Proteasome subunit alpha type-6; Proteasome subunit alpha type-7

[2] = molecular target: T2, human 20S s-proteasome (T2 proteasome) (Homo sapiens, UniProt P28072+P28074+Q99436); assay: fluorogenic peptide hydrolysis time courses, Bayesian fit of compartment model; settings: TEAD buffer pH 7.2, 37 °C, 20-640 μM substrate, model-inferred active site affinity
T2 construct: gene PSMB5; native 20S core particle purified from T2 cells; alpha7beta7beta7alpha7; with Proteasome subunit beta type-1; Proteasome subunit beta type-2; Proteasome subunit beta type-3; Proteasome subunit beta type-4; Proteasome subunit alpha type-1; Proteasome subunit alpha type-2; Proteasome subunit alpha type-3; Proteasome subunit alpha type-4; Proteasome subunit alpha type-5; Proteasome subunit alpha type-6; Proteasome subunit alpha type-7

[3] = molecular target: T1, 20S mouse liver proteasome; assay: fluorogenic peptide hydrolysis, initial velocities, ABC-SMC fit of Michaelis-Menten and substrate-inhibition models; settings: TEAD buffer pH 7.2, 37 °C, authors state the models fit poorly

SMILES: Cc1cc(=O)oc2cc(NC(=O)[C@H](Cc3ccc(O)cc3)NC(=O)[C@@H](NC(=O)[C@H](CC(C)C)NC(=O)[C@H](CC(C)C)NC(=O)CCC(=O)O)C(C)C)ccc12 [LLVY peptide] (HELM PEPTIDE1{[O=C(O)CCC(=O)[*:2]].L.L.V.Y.[Cc1cc(=O)oc2cc(N[*:1])ccc12]}$$$$V2.0)
- Bz-VGR-MCA hydrolysis with and without peptide [1]: degradation rate of the substrate Bz-VGR-MCA increases in the presence of the peptide LLVY

SMILES: Cc1cc(=O)oc2cc(NC(=O)[C@H](Cc3ccc(O)cc3)NC(=O)[C@@H](NC(=O)[C@H](CC(C)C)NC(=O)[C@H](CC(C)C)NC(=O)CCC(=O)O)C(C)C)ccc12 [Suc-LLVY-MCA] (HELM PEPTIDE1{[O=C(O)CCC(=O)[*:2]].L.L.V.Y.[Cc1cc(=O)oc2cc(N[*:1])ccc12]}$$$$V2.0)
- KaS ([2]; site mainly beta5): we observe a higher active site affinity (KaS) with a lower Hill coefficient (na)
- KM ([3]; site mainly beta5/beta5i): Scatterplot of the kinetic parameters vmax and KM from the inferred posterior parameter distributions

SMILES: Cc1cc(=O)oc2cc(NC(=O)[C@H](CCC(=O)O)NC(=O)[C@H](CC(C)C)NC(=O)[C@H](CC(C)C)NC(=O)OCc3ccccc3)ccc12 [Z-LLE-MCA] (HELM PEPTIDE1{[O=C(OCc1ccccc1)[*:2]].L.L.E.[Cc1cc(=O)oc2cc(N[*:1])ccc12]}$$$$V2.0)
- KaS ([2]; site mainly beta1): for i-proteasomes we observe lower affinity to the active site (KaS)
- KM ([3]; site mainly beta1/beta1i): The substrates Suc-LLVY-MCA, Bz-VGR-MCA and Z-LLE-MCA were hydrolysed by mouse proteasome
